In one experiment the test system is human neutrophils. In words: Cytoplasmic calcium concentration (Quin2). The class given is cell-based. Conditions: Sphinganine (30 μM) pretreatment. The procedure: Intracellular calcium was measured by the Quin2 method. Briefly, Quin2/acetoxymethylester (50 μM) was preincubated with 1×10^8cell/ml for 20 min. at 37°, prior to 10-fold dilution and continuation of incubation for an additional 40-60 minutes. Cells were reisolated by centrifugation to remove extracellular fluorophore, and fluorescence measurement and calibration were carried out as described by Tsien et al in J. Cell. Biol. 94, 325-334, 1982, using a Perkin-Elmer MPF-44B fluorescence spectrophotometer. Buffer consisted of 140 mM NaCl, 5 mM KCl, 1 mM Na2 PO4, 5.5 mM glucose, 0.5 mM MgSO4, 20 mM Hepes, and 1 mM CaCl2.

The next experiment concerns the target T1, NADPH-oxidase (Homo sapiens, UniProt P04839).
T1 construct: endogenous in cells
Description: NADPH-oxidase activity in isolated neutrophil membranes. The class given is biochemical. The procedure: Superoxide production was also measured spectrophotometrically in isolated membranes (see below) by the method of Curnutte et al (N. Eng. J. Med. 293, 628-632) also using superoxide dismutase inhibitable reduction of cytochrome c. Assays utilized paired cuvettes with the reference cuvette containing 30 μg/ml superoxide dismutase. Both cuvettes also contained 65 mM potassium phosphate pH 7.0, 125 mM sucrose, 81 μM cytochrome c, and 0.1 mg of membrane protein. The reaction was initiated with 200 μM (final) NADPH in both cuvettes. The treatments are as described in Table I. All spectrophotometric measurements were carried out using a Cary […] spectrophotometer.
Neutrophil membranes activated for superoxide production were prepared as described previously (Hohn, J. Clin. Invest. 55, 707-713, 1975). Neutrophils (10^8) were suspended in PBS-glucose and incubated in a shaking waterbath at 37° C. Cells were activated by the addition of 10 μg PMA/ml and allowed to incubate 5 min. The reaction was stopped by adding an equal volume of ice-cold PBS. The cells were centrifuged at 400×g for 4 min at 4° C. and resuspended in PBS-glucose containing 120 μM FAD. The cells were lysed by homogenization with a teflon-glass homogenizer. The homgenate was centrifuged at 250×g for 10 min. to remove unlysed cells. […]

In the case of `CCCCCCCCCCCCCCC[C@@H](O)[C@@H](N)CO` (relative stereo) [Sphinganine, erythro-dihydrosphingosine], the “Calcium, Resting” value in the experiment on human neutrophils is 0.20 ± 0.02 µM. In addition, the “Calcium, FMLP-Peak” value with human neutrophils (1 μM FMLP) turned out to be 0.66 ± 0.14 µM. Further, on NADPH-oxidase (18 μM sphinganine, membranes from PMA-pretreated cells), the “Cytochrome c Reduction” value stood at 27 nmols/min/mg/protein. The “inhibition of NADPH-dependent superoxide generation in isolated membranes” value on NADPH-oxidase (concentrations which inhibited the cellular response) is recorded as “No inhibition”.

Values taken from US4937232A, “Inhibition of protein kinase C by long-chain bases” (priority 1988, dated 1990).
